# Assay results as given in patent publication US8822484B2, “Fused thiazolo and oxazolo pyrimidinones” (Torrent Pharmaceuticals Limited, priority 2009, dated 2014).
# Assays:
# Format in all cases: cell-based
# [1] = system: erythropoietin; test: In vitro erythropoietin induction (ELISA of culture supernatant); details: Hep3B cell line, relative to vehicle control; for EPO fold induction: 16 hours
# Protocol: Hep3B cell line (ATCC HB8064) was employed. Induction of erythropoietin was carried out for the indicated dose of compounds for 16 hours duration. At the end of 16 hours, cell culture medium was collected and centrifuged to remove any debris. Supernatant obtained was analyzed for erythropoietin by ELISA (R&D systems, USA). The results were expressed as fold induction as compared to vehicle control.
# [2] = system: adrenomedullin mRNA; test: In vitro induction of adrenomedullin (mRNA, real-time PCR); details: Hep3B cell line, 200 uM, 6 hours, normalized to 18S rRNA, relative to vehicle control
# Protocol: Hep3B cell line (ATCC HB8064) was employed. […] At the end of 6 hours, cells were lysed and total RNA was isolated. Expression of adrenomedullin mRNA along-with expression of 18S rRNA was monitored by real-time PCR. Adrenomedullin mRNA expression was normalized relative to the expression of 18S rRNA. The results were expressed as fold induction of adrenomedullin mRNA relative to vehicle treated control.
# [3] = system: VEGF; test: In vitro induction of vascular endothelial growth factor (ELISA of culture supernatant); details: Hep3B cell line, 200 uM, 16 hours, relative to vehicle control
# Protocol: Hep3B cell line (ATCC HB8064) was employed. […] Supernatant obtained was analyzed for VEGF by ELISA (R&D systems, USA).
Structure (SMILES),EPO fold induction ([1]; 200 uM),further results
"C[C@@H](NC(=O)c1c(O)nc2sc3c(n2c1=O)CCC(C)(C)C3)C(=O)O (single isomer, unassigned) [Compound 44, 2-[(2-Hydroxy-7,7-dimethyl-4-oxo-5,6,7,8-tetrahydro-4H-9-thia-1,4a-diaza-fluorene-3-carbonyl)-amino]-propionic acid (D-isomer)]",+ (<2 fold),
"O=C(O)CNC(=O)c1c(O)nc2sc3c(n2c1=O)CCC3 [Compound 11, [(2-Hydroxy-4-oxo-7,8-dihydro-4H,6H-cyclopenta[4,5]thiazolo[3,2-a]pyrimidine-3-carbonyl)-amino]-acetic acid]",+++ (5-8 fold),
"O=C(O)CCNC(=O)c1c(O)nc2sc3c(n2c1=O)CCC3 [Compound 14, 3-[(2-Hydroxy-4-oxo-7,8-dihydro-4H,6H-cyclopenta[4,5]thiazolo[3,2-a]pyrimidine-3-carbonyl)-amino]-propionic acid]",++ (2-4 fold),
"CC1(C)CCc2c(sc3nc(O)c(C(=O)NCC(=O)[O-])c(=O)n23)C1.CC1(C)CCc2c(sc3nc(O)c(C(=O)NCC(=O)[O-])c(=O)n23)C1.[Na+].[Na+] [Compound 80, [(2-Hydroxy-7,7-dimethyl-4-oxo-5,6,7,8-tetrahydro-4H-9-thia-1,4a-diaza-fluorene-3-carbonyl)-amino]-acetic acid, Disodium salt]",++++ (9-16 fold),
"O=C([O-])CNC(=O)c1c(O)nc2sc3c(n2c1=O)CCCCC3.O=C([O-])CNC(=O)c1c(O)nc2sc3c(n2c1=O)CCCCC3.[Na+].[Na+] [Compound 82, [(2-Hydroxy-4-oxo-6,7,8,9-tetrahydro-4H,5H-10-thia-1,4a-diaza-benzo[a]azulene-3-carbonyl)-amino]-acetic acid, Disodium salt]",,EPO fold induction ([1]; 50 uM): ++++ (9-16 fold); Adrenomedullin mRNA (fold induction) [2]: +++ (5-8 fold); VEGF (Fold induction) [3]: ++ (2-4 fold induction of VEGF)
"COc1cc(OC)cc(C(=O)N2CCc3c(sc4nc(O)c(C(=O)NCC(=O)O)c(=O)n34)C2)c1 [Compound 41, {[7-(3,5-Dimethoxy-benzoyl)-2-hydroxy-4-oxo-5,6,7,8-tetrahydro-4H-9-thia-1,4a,7-triaza-fluorene-3-carbonyl]-amino}-acetic acid]",,"fold induction at 200 µM ([1]; Homo sapiens, Hep3B, 16 h, 200 uM, read-out: EPO fold induction): 2 to 4"
"CC1(C)CCc2c(sc3nc(O)c(C(=O)N[C@H](C(=O)O)c4ccccc4)c(=O)n23)C1 (single isomer, unassigned) [Compound 55, [(2-Hydroxy-7,7-dimethyl-4-oxo-5,6,7,8-tetrahydro-4H-9-thia-1,4a-diaza-fluorene-3-carbonyl)-amino]-phenyl-acetic acid, L-isomer]",+ (<2 fold),
"CC(C)[C@H](NC(=O)c1c(O)nc2sc3c(n2c1=O)CCC(C)(C)C3)C(=O)O (single isomer, unassigned) [Compound 43, 2-[(2-Hydroxy-7,7-dimethyl-4-oxo-5,6,7,8-tetrahydro-4H-9-thia-1,4a-diaza-fluorene-3-carbonyl)-amino]-3-methyl-butyric acid (L-isomer)]",+ (<2 fold),
